The test system of one assay is HUV-EC-C cells (VEGF). Kind of assay: HUV-EC-C assay, VEGF-stimulated 3H-thymidine incorporation (HUVEC-VEGF). The assay is classed as cell-based. Particulars: Homo sapiens; Table 1. As for the experimental part: (§1) The following protocol may also be used to measure a compound's activity against PDGF-R, FGF-R, VEGF, aFGF or Flk-1/KDR, all of which are naturally expressed by HUV-EC cells.
(§2) 1. […] After cells have detached from the flask, add an equal volume of assay medium and transfer to a 50 ml sterile centrifuge tube (Fisher Scientific, catalogue no. 05-539-6).
(§3) 2. Wash the cells with about 35 ml assay medium in the 50 ml sterile centrifuge tube by adding the assay medium, centrifuge for 10 minutes at approximately 200x g, aspirate the supernatant, and resuspend with 35 ml D-PBS. Repeat the wash two more times with D-PBS, resuspend the cells in about 1 ml assay medium/is cm^2 of tissue culture flask. Assay medium consists of F12K medium (Gibco BRL, catalogue no. 21127-014) and 0.5% heat-inactivated fetal bovine serum. Count the cells with a Coulter Counter® (Coulter Electronics, Inc.) and add assay medium to the cells to obtain a concentration of 0.8-1.0×10^5 cells/ml.
(§4) 3. Add cells to 96-well flat-bottom plates at 100 μl/well or 0.8-1.0×10^4 cells/well, incubate −24h at 37° C., 5% CO2.
(§5) 1. Make up two-fold test compound titrations in separate 96-well plates, generally 50 μM on down to 0 μM. Use the same assay medium as mentioned in day 0, step 2 above. Titrations are made by adding […] of test compound at 200 μM (4X the final well concentration) to the top well of a particular plate column. Since the stock test compound is usually 20 mM in DMSO, the 200 μM drug concentration contains 2% DMSO.
(§6) A diluent made up to 2% DMSO in assay medium (F12K+0.5% fetal bovine serum) is used as diluent for the test compound titrations in order to dilute the test compound but keep the DMSO concentration constant. Add this diluent to the remaining wells in the column at 60 μl/well. Take 60 μl from the 120 μl of 200 μM test compound dilution in the top well of the column and mix with the 60 μl in the second well of the column. Take 60 μl from this well and mix with the 60 μl in the third well of the column, and so on until two-fold titrations are completed. When the next-to-the-last well is mixed, take 60 μl of the 120 μl in this well and discard it. Leave the last well with 60 μl of DMSO/media diluent as a non-test compound-containing control. Make 9 columns of titrated test compound, enough for triplicate wells each for: (1) VEGF (obtained from Pepro Tech Inc., catalogue no. 100-200, (2) endothelial cell growth factor (ECGF) (also known as acidic fibroblast growth factor, or aFGF) (obtained from Boehringer Mannheim Biochemica, catalogue no. 1439 600), or, (3) human PDGF B/B (1276-956, Boehringer Mannheim, Germany) and assay media control. ECGF comes as a preparation with sodium heparin.
(§7) 2. Transfer 50 μl/well of the test compound dilutions to the 96-well assay plates containing the 0.8-1.0×10^4 cells/100 μl/well of the HUV-EC-C cells from day 0 and incubate […] at 37° C., 5% CO2.
(§8) 3. In triplicate, add 50 μl well of […] VEGF, 20 ng/ml ECGF, or media control to each test compound condition. As with the test compounds, the growth factor concentrations are 4X the desired final concentration. Use the assay media from day 0 step 2 to make the concentrations of growth factors. Incubate approximately 24 hours at 37° C., 5% CO2. Each well will have 50 μl test compound dilution, 50 μl growth factor or media, and 100 μl cells, which calculates to 200 μl/well total. Thus the 4X concentrations of test compound and growth factors become 1X once everything has been added to the wells.
(§9) 1. Add ^3H-thymidine (Amersham, catalogue no. TRK-686) at 1 μCi/well (10 μl/well of 100 μCi/ml solution made up in RPMI media +10% heat-inactivated fetal bovine serum) and incubate ˜24 h at 37° C., 5% CO2. RPMI is obtained from Gibco BRL, catalogue no. 11875-051.
(§10) 1. Freeze plates overnight at −20° C. […]

A further assay concerns HUV-EC-C cells (aFGF). The assay is described as follows: HUV-EC-C assay, aFGF (ECGF)-stimulated 3H-thymidine incorporation (HUVEC-aFGF). The assay is classed as cell-based. Particulars: Homo sapiens; Table 1. As for the experimental part:
as §1, §2, §3, §4, §5, §6, §7, §8, §9, §10

`Cc1c(CCC(=O)O)c[nH]c1/C=C1\C(=O)Nc2ccc(Cl)cc21` [Example 1, 3-[5-(5-Chloro-2-oxo-1,2-dihydroindol-3-ylidenemethyl)-4-methyl-1H-pyrrol-3-yl]-propionic acid]: the half-maximal inhibitory concentration (IC50) was determined as 380 nM in the assay on HUV-EC-C cells (VEGF) and 21400 nM in the assay with HUV-EC-C cells (aFGF).

Take `COc1ccc2c(c1)NC(=O)/C2=C\c1[nH]cc(CCC(=O)O)c1C` [Example 2, 3-[5-(6-Methoxy-2-oxo-1,2-dihydroindol-3-ylidenemethyl)-4-methyl-1H-pyrrol-3-yl]-propionic acid]: the IC50 in the assay on HUV-EC-C cells (VEGF) was found to be 1600 nM; with HUV-EC-C cells (aFGF) it was 31600 nM.

As to `Cc1[nH]c(/C=C2\C(=O)Nc3ccc(Cl)cc32)c(C)c1CCC(=O)O` [Example 3, 3-[5-(5-Chloro-2-oxo-1,2-dihydroindol-3-ylidenemethyl)-2,4-dimethyl-1H-pyrrol-3-yl]-propionic acid], the figures for the 50% inhibitory concentration (IC50) in the assay on HUV-EC-C cells (VEGF) and with HUV-EC-C cells (aFGF) were 50 nM and 2800 nM, respectively.

`Cc1c(CCC(=O)O)c[nH]c1/C=C1\C(=O)Nc2ccccc21` [Example 4, 3-[4-Methyl-5-(2-oxo-l,2-dihydroindol-3-ylidenemethyl)-1H-pyrrol-3-yl]-propionic acid]: the 50% inhibitory concentration (IC50) in the assay with HUV-EC-C cells (VEGF) turned out to be 110 nM; in the assay with HUV-EC-C cells (aFGF), 7100 nM.

As to `Cc1c(CCC(=O)O)c[nH]c1/C=C1\C(=O)Nc2ccc(Br)cc21` [Example 6, 3-[5-(5-Bromo-2-oxo-1,2-dihydroindol-3-ylidenemethyl)-4-methyl-1H-pyrrol-3-yl]-propionic acid], the IC50 in the assay on HUV-EC-C cells (VEGF) worked out at 630 nM; in the assay on HUV-EC-C cells (aFGF), 18400 nM.

In the case of `Cc1c(CCC(=O)O)c[nH]c1/C=C1\C(=O)Nc2ccc(I)cc21` [Example 7, 3-[5-(5-Iodo-2-oxo-1,2-dihydroindol-3-ylidenemethyl)-4-methyl-1H-pyrrol-3-yl]-propionic acid], the 50% inhibitory concentration (IC50) in the assay with HUV-EC-C cells (VEGF) turned out to be 1340 nM; with HUV-EC-C cells (aFGF), 12300 nM.

For `Cc1cccc2c1/C(=C/c1[nH]cc(CCC(=O)O)c1C)C(=O)N2` [Example 8, 3-[4-Methyl-5-(4-methyl-2-oxo-1,2-dihydroindol-3-ylidenemethyl)-1H-pyrrol-3-yl]-propionic acid], the IC50 stood at 740 nM with HUV-EC-C cells (VEGF) and 4520 nM in the assay with HUV-EC-C cells (aFGF).

`Cc1ccc2c(c1)/C(=C/c1[nH]cc(CCC(=O)O)c1C)C(=O)N2` [Example 9, 3-[4-Methyl-5-(5-methyl-2-oxo-1,2-dihydroindol-3-ylidenemethyl)-1H-pyrrol-3-yl]-propionic acid]: the concentration for half-maximal inhibition (IC50) stood at 330 nM in the assay with HUV-EC-C cells (VEGF) and 13400 nM in the assay on HUV-EC-C cells (aFGF).

On to `COc1cc2c(cc1OC)/C(=C/c1[nH]cc(CCC(=O)O)c1C)C(=O)N2` [Example 10, 3-[5-(5,6-Dimethoxy-2-oxo-1,2-dihydroindol-3-ylidenemethyl)-4-methyl-1H-pyrrol-3-yl]-propionic acid], for which the figures for the 50% inhibitory concentration (IC50) with HUV-EC-C cells (VEGF) and in the assay on HUV-EC-C cells (aFGF) were 10600 nM and greater than 50000 nM, respectively.

`Cc1c(CCC(=O)O)c[nH]c1/C=C1\C(=O)Nc2cc(Cl)ccc21` [Example 11, 3-[5-(6-Chloro-2-oxo-1,2-dihydroindol-3-ylidenemethyl)-4-methyl-1H-pyrrol-3-yl]-propionic acid]: the 50% inhibitory concentration (IC50) came to 1400 nM in the assay with HUV-EC-C cells (VEGF) and 9600 nM with HUV-EC-C cells (aFGF).

On to `COC(=O)c1ccc2c(c1)/C(=C/c1[nH]cc(CCC(=O)O)c1C)C(=O)N2` [Example 12, 3-[4-(2-Carboxyethyl)-3-methyl-1H-pyrrol-2-ylmethylene]-2-oxo-2,3-dihydro-1H-indole-5-carboxylic acid methyl ester], for which the values for the half-maximal inhibitory concentration (IC50) in the assay on HUV-EC-C cells (VEGF) and with HUV-EC-C cells (aFGF) were 11000 nM and 24600 nM, respectively.

For `CCc1ccc2c(c1)/C(=C/c1[nH]cc(CCC(=O)O)c1C)C(=O)N2` [Example 17, 3-[5-(5-Ethyl-2-oxo-1,2-dihydro-indol-3-ylidenemethyl)-4-methyl-1H-pyrrol-3-yl]-propionic acid], the IC50 is 1200 nM in the assay on HUV-EC-C cells (VEGF) and 20000 nM in the assay with HUV-EC-C cells (aFGF).

As for `COc1ccc2c(c1)/C(=C/c1[nH]cc(CCC(=O)O)c1C)C(=O)N2` [Example 18, 3-[5-(5-Methoxy-2-oxo-1,2-dihydroindol-3-ylidenemethyl)-4-methyl-1H-pyrrol-3-yl]-propionic acid], the IC50 in the assay with HUV-EC-C cells (VEGF) was 2400 nM; in the assay with HUV-EC-C cells (aFGF), 18400 nM.

In the case of `Cc1[nH]c(/C=C2\C(=O)Nc3ccc(Br)cc32)c(C)c1CCC(=O)O` [Example 19, 3-[5-(5-Bromo-2-oxo-1,2-dihydroindol-3-ylidenemethyl)-2,4-dimethyl-1H-pyrrol-3-yl]-propionic acid], the half-maximal inhibitory concentration (IC50) in the assay with HUV-EC-C cells (VEGF) was found to be 70 nM; with HUV-EC-C cells (aFGF), 3600 nM.

For `Cc1[nH]c(/C=C2\C(=O)Nc3ccc(I)cc32)c(C)c1CCC(=O)O` [Example 20, 3-[5-(5-Iodo-2-oxo-1,2-dihydroindol-3-ylidenemethyl)-2,4-dimethyl-1H-pyrrol-3-yl]-propionic acid], the half-maximal inhibitory concentration (IC50) in the assay on HUV-EC-C cells (VEGF) was 290 nM; in the assay with HUV-EC-C cells (aFGF) it was 5000 nM.

Consider `Cc1cccc2c1/C(=C/c1[nH]c(C)c(CCC(=O)O)c1C)C(=O)N2` [Example 21, 3-[2,4-Dimethyl-5-(4-methyl-2-oxo-1,2-dihydroindol-3-ylidene-methyl)-1H-pyrrol-3-yl]-propionic acid], for which the figures for the IC50 with HUV-EC-C cells (VEGF) and in the assay on HUV-EC-C cells (aFGF) were 4000 nM and 5600 nM, respectively.

Regarding `Cc1ccc2c(c1)/C(=C/c1[nH]c(C)c(CCC(=O)O)c1C)C(=O)N2` [Example 22, 3-[2,4-Dimethyl-5-(5-methyl-2-oxo-1,2-dihydroindol-3-ylidenemethyl)-1H-pyrrol-3-yl]-propionic acid], the IC50 was found to be 130 nM in the assay on HUV-EC-C cells (VEGF) and 15800 nM in the assay on HUV-EC-C cells (aFGF).

For the compound `Cc1[nH]c(/C=C2\C(=O)Nc3cc(O)ccc32)c(C)c1CCC(=O)O` [Example 23, 3-[5-(6-Hydroxy-2-oxo-1,2-dihydroindol-3-ylidenemethyl)-2,4-dimethyl-1H-pyrrol-3-yl]-propionic acid], the IC50 in the assay with HUV-EC-C cells (VEGF) was 3000 nM; in the assay with HUV-EC-C cells (aFGF), 1100 nM.

Turning to `COc1ccc2c(c1)NC(=O)/C2=C\c1[nH]c(C)c(CCC(=O)O)c1C` [Example 24, 3-[5-(6-Methoxy-2-oxo-1,2-dihydroindol-3-ylidenemethyl)-2,4-dimethyl-1H-pyrrol-3-yl]-propionic acid], the values for the IC50 in the assay with HUV-EC-C cells (VEGF) and in the assay on HUV-EC-C cells (aFGF) were 670 nM and 25100 nM, respectively.

In the case of `COc1cccc(-c2ccc3c(c2)NC(=O)/C3=C\c2[nH]c(C)c(CCC(=O)O)c2C)c1` [Example 27, 3-{5-[6-(3-Methoxy-phenyl)-2-oxo-1,2-dihydroindol-3-ylidenemethyl]-2,4-dimethyl-1H-pyrrol-3-yl}-propionic acid], the results for the IC50 in the assay with HUV-EC-C cells (VEGF) and with HUV-EC-C cells (aFGF) were 990 nM and 1500 nM, respectively.

Regarding `Cc1c(CCC(=O)O)c[nH]c1/C=C1\C(=O)Nc2cc(Br)ccc21` [Example 28, 3-[5-(6-Bromo-2-oxo-1,2-dihydroindol-3-ylidenemethyl)-4-methyl-1H-pyrrol-3-yl]-propionic acid], the figures for the IC50 in the assay on HUV-EC-C cells (VEGF) and in the assay with HUV-EC-C cells (aFGF) were 150 nM and 1900 nM, respectively.

With `COc1cccc(-c2ccc3c(c2)NC(=O)/C3=C\c2[nH]cc(CCC(=O)O)c2C)c1` [Example 29, 3-{5-[6-(3-Methoxy-phenyl)-2-oxo-1,2-dihydroindol-3-ylidenemethyl]-4-methyl-1N-pyrrol-3-yl}-propionic acid], the figures for the IC50 in the assay with HUV-EC-C cells (VEGF) and in the assay with HUV-EC-C cells (aFGF) were 180 nM and 130 nM, respectively.

For `CCOc1cccc(-c2ccc3c(c2)NC(=O)/C3=C\c2[nH]c(C)c(CCC(=O)O)c2C)c1` [Example 30, 3-(5-[6-(3-Ethoxy-phenyl)-2-oxo-1,2-dihydroindol-3-ylidenemethyl]-2,4-dimethyl-1H-pyrrol-3-yl)-propionic acid], the values for the IC50 with HUV-EC-C cells (VEGF) and with HUV-EC-C cells (aFGF) were 250 nM and 640 nM, respectively.

For the origin of these results see patent US7119090B2, “Pyrrole substituted 2-indolinone protein kinase inhibitors” (Sugen, Inc., priority 1998, dated 2006).
